Earlier results, collected in patent US20040248901A1, “Compositions containing itraconazole and their preparation methods” (priority 2001, published 2004).

Conditions: background art

solubility in water: ≤ 1 µg/mL
SMILES: CCC(C)n1ncn(-c2ccc(N3CCN(c4ccc(OCC5COC(Cn6cncn6)(c6ccc(Cl)cc6Cl)O5)cc4)CC3)cc2)c1=O (mixture of isomers) [itraconazole, (±)-cis-4-[4-[4-[4-[[2-(2,4-dichlorophenyl)-2-(1H-1,2,4-triazol-1-ylmethyloxolan-4-yl]methoxy]phenyl]-1-piperazinyl]phenyl]-2,4-dihydro-2-(1-methylpropyl)-3H-1,2,4-triazol-3-one]
